Key:
Cytochrome P450 3A4 [1] = target: T1, Cytochrome P450 3A4 (Homo sapiens, UniProt P08684); test: Inhibition of human CYP3A4 expressed in HEK293 cells by fluorescence assay; type: ADME, cell-based
Cytochrome P450 1B1 [2] = target: T2, Cytochrome P450 1B1 (Homo sapiens, UniProt Q16678); test: Inhibition of human CYP1B1 expressed in yeast microsomal membranes using 7-ethoxyresorufin as substrate by fluorescence assay; type: cell membranes
T2 sequence (Q16678 whole entry): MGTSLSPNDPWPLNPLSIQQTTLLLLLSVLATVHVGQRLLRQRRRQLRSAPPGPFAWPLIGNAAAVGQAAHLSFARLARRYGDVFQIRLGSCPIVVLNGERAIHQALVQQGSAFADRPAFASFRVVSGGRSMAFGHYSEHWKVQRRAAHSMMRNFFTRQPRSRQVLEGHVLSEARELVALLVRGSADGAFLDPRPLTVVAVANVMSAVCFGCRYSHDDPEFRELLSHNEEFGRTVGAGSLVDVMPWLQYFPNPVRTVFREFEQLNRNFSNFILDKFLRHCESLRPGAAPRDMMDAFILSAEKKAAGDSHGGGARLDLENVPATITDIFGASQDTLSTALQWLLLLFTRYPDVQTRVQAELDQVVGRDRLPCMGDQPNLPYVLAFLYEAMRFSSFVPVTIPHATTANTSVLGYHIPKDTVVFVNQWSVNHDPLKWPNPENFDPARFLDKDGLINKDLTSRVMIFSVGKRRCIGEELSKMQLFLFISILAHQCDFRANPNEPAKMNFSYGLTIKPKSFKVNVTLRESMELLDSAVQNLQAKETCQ

Cytochrome P450 1A2 [3] = target: T3, Cytochrome P450 1A2 (Homo sapiens, UniProt P05177); test: Inhibition of recombinant human CYP1A2 expressed in yeast microsomal membranes by fluorescence assay; type: ADME, cell membranes, Microsomal Membrane
T3 sequence (P05177 whole entry): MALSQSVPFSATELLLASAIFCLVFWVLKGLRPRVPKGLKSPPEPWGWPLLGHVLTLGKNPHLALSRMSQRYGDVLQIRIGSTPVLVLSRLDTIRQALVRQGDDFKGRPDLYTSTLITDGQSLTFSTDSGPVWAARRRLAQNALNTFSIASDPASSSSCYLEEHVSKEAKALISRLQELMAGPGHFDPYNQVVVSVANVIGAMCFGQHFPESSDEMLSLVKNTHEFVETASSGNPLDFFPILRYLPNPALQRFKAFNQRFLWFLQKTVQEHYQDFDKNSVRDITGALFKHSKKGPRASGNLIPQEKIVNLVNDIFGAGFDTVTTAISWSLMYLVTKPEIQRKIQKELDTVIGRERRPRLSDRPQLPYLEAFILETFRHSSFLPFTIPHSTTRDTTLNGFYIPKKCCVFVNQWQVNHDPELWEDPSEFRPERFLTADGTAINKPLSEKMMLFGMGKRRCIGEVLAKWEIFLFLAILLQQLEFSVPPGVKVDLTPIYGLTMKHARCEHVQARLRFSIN

Cytochrome P450 2D6 [4] = target: T4, Cytochrome P450 2D6 (Homo sapiens, UniProt P10635); test: Inhibition of human CYP2D6 expressed in HEK293 cells by fluorescence assay; type: ADME, cell-based
T4 sequence (P10635 whole entry): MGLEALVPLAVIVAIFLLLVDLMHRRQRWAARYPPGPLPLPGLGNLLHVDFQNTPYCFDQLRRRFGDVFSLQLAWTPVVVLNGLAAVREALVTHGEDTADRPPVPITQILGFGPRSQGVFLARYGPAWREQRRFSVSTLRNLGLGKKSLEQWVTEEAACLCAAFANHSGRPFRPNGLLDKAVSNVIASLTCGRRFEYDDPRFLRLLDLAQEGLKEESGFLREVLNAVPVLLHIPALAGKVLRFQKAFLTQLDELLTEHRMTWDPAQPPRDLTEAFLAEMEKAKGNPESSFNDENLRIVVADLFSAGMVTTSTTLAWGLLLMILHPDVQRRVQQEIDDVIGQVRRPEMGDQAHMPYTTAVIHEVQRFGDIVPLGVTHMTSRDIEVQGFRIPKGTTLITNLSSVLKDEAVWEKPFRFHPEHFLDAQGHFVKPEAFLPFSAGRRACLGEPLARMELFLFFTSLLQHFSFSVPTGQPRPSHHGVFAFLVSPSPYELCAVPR

Cytochrome P450 2D6 [5] = target: T4, Cytochrome P450 2D6; test: Inhibition of recombinant human CYP2D6 expressed in yeast microsomal membranes by fluorescence assay; type: ADME, cell membranes, Microsomal Membrane
Cytochrome P450 3A4 [6] = target: T1, Cytochrome P450 3A4; test: Inhibition of recombinant human CYP3A4 expressed in yeast microsomal membranes by fluorescence assay; type: ADME, cell membranes, Microsomal Membrane
Cytochrome P450 1A2 [7] = target: T3, Cytochrome P450 1A2; test: Inhibition of human CYP1A2 expressed in HEK293 cells by fluorescence assay; type: ADME, cell-based
Cytochrome P450 1B1 [8] = target: T2, Cytochrome P450 1B1; test: Inhibition of human CYP1B1 expressed in HEK293 cells by fluorescence assay; type: cell-based
CYP1A1 = target: T5, CYP1A1 (Homo sapiens, UniProt P04798); test: Inhibition of recombinant human CYP1A1 expressed in yeast microsomal membranes at 10 uM by fluorescence assay relative to control; type: cell membranes
T5 sequence (P04798 whole entry): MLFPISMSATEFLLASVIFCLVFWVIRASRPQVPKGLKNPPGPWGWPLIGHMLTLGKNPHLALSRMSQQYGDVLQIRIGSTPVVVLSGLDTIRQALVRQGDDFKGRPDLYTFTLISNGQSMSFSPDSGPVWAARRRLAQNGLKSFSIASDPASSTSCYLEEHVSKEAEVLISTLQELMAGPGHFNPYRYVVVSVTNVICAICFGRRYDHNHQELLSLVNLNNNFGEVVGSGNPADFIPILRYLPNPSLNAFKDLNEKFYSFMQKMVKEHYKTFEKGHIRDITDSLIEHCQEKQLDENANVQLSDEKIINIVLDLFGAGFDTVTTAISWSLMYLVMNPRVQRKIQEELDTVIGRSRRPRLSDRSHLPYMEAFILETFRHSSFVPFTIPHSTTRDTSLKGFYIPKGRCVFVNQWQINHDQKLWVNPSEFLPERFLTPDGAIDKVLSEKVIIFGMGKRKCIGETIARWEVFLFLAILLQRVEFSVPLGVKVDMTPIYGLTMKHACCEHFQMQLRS

Cytochrome P450 1A1 [9] = target: T6, Cytochrome P450 1A1 (Homo sapiens, UniProt P04798); test: Inhibition of human CYP1A expressed in HEK293 cells by fluorescence assay; type: ADME, cell-based
T6 sequence (P04798 whole entry): T5 sequence (P04798 whole entry)

Cytochrome P450 1A1 [10] = target: T6, Cytochrome P450 1A1; test: Inhibition of recombinant human CYP1A1 expressed in yeast microsomal membranes by fluorescence assay; type: cell membranes
CYP1B1 = target: T7, CYP1B1 (Homo sapiens, UniProt Q16678); test: Inhibition of human CYP1B1 expressed in yeast microsomal membranes at 10 uM using 7-ethoxyresorufin as substrate by fluorescence assay relative to control; type: cell membranes; conditions: probe 7-ethoxyresorufin
T7 sequence (Q16678 whole entry): T2 sequence (Q16678 whole entry)

T1 sequence (P08684 whole entry): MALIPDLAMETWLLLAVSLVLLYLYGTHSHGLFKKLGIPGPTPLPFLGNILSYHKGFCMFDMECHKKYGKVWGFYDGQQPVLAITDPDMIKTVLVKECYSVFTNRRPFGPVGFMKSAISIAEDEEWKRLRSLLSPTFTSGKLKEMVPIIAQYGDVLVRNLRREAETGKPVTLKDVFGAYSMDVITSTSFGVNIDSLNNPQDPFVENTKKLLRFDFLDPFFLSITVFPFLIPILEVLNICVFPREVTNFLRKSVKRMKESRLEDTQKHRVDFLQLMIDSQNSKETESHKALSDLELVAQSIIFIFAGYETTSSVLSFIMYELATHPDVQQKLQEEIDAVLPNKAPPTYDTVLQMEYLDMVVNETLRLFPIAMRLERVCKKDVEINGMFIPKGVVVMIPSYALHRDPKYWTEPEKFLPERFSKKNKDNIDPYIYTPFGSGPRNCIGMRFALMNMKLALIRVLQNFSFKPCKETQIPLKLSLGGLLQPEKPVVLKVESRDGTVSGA

Compound | inhibition at 10 µM (CYP1A1) [%] | inhibition at 10 µM (CYP1B1) [%] | other results
CC(C)=CCc1cc(C2Oc3c(ccc(O)c3CC=C(C)C)C(=O)C2O)ccc1O (configuration not stated) | 31.4 | 7.5 | 
COc1ccc(C2COc3c(ccc4c3C=CC(C)(C)O4)C2)c(O)c1 (configuration not stated) | 29.6 | 12 | 
O=C(/C=C/c1ccc(O[C@H]2O[C@@H](CO)[C@H](O)[C@@H](O)[C@@H]2O[C@@H]2OC[C@](O)(CO)[C@H]2O)cc1)c1ccc(O)cc1O | 11.4 | -9.5 | 
O=c1cc(-c2ccccc2)oc2c1ccc1ccccc12 [ALPHA-NAPHTHOFLAVONE] | 97 |  | 
CC1(C)[C@@H](O)CC[C@]2(C)[C@H]3C(=O)C=C4[C@@H]5C[C@@](C)(C(=O)O)CC[C@]5(C)CC[C@@]4(C)[C@]3(C)CC[C@@H]12 [ENOXOLONE] | 11.4 | -2.1 | 
CC1(C)[C@@H](O[C@H]2O[C@H](C(=O)O)[C@@H](O)[C@H](O)[C@H]2O[C@@H]2O[C@H](C(=O)O)[C@@H](O)[C@H](O)[C@H]2O)CC[C@]2(C)[C@H]3C(=O)C=C4[C@@H]5C[C@@](C)(C(=O)O)CC[C@]5(C)CC[C@@]4(C)[C@]3(C)CC[C@@H]12 [GLYCYRRHIZIN] | 39 | 10.5 | 
O=c1c(O)c(-c2ccc(O)c(O)c2)oc2cc(O)cc(O)c12 [QUERCETIN] | 31.5 | 67.2 | IC50 (Cytochrome P450 2D6 [4]): > 20 µM; IC50 (Cytochrome P450 2D6 [5]): > 20 µM

Now from value to compound, other results behind:

inhibition at 10 µM (CYP1A1) [%] | inhibition at 10 µM (CYP1B1) [%] | Compound | other results
67.2 | 17.7 | CC(C)=CCc1cc(C2CC(=O)c3ccc(O)c(CC=C(C)C)c3O2)ccc1O (configuration not stated) | IC50 (Cytochrome P450 3A4 [1]): > 20 µM; IC50 (Cytochrome P450 1B1 [2]): > 20 µM; IC50 (Cytochrome P450 1A2 [3]): > 20 µM; IC50 (Cytochrome P450 2D6 [4]): > 20 µM; IC50 (Cytochrome P450 2D6 [5]): > 20 µM; IC50 (Cytochrome P450 3A4 [6]): > 20 µM; IC50 (Cytochrome P450 1A2 [7]): > 20 µM; IC50 (Cytochrome P450 1B1 [8]): 15 µM; IC50 (Cytochrome P450 1A1 [9]): > 20 µM; IC50 (Cytochrome P450 1A1 [10]): 17.6 µM
27.5 | 31.7 | COc1ccc2c(c1)OC1c3ccc(O)cc3OCC21 (configuration not stated) | 
10.8 | -1.3 | COc1ccc(-c2coc3cc(O)ccc3c2=O)cc1 [FORMONONETIN] | 
36.8 | 26.6 | CC1(C)C=Cc2c(ccc3c2OC[C@@H](c2ccc(O)cc2O)C3)O1 [GLABRIDIN] | 
22.3 | 3.1 | O=C(/C=C/c1ccc(O)cc1)c1ccc(O)cc1O [ISOLIQUIRITIGENIN] | 
19.2 | 38.2 | O=C1C[C@@H](c2ccc(O)cc2)Oc2cc(O)ccc21 [LIQUIRTIGENIN] | 
